In brackets after ≈: the same amount, converted by molar mass.
How the values were obtained:
[1] = tested on: Staphylococcus aureus; assay: Antimicrobial activity against Staphylococcus aureus ATCC […] assessed as growth inhibition by agar dilution-streak method; assay type: functional
[2] = tested on: Escherichia coli; assay: Antimicrobial activity against Escherichia coli 9637 assessed as growth inhibition by agar dilution-streak method; assay type: functional
[3] = tested on: Klebsiella pneumoniae; assay: Antimicrobial activity against Klebsiella pneumoniae 10031 assessed as growth inhibition by agar dilution-streak method; assay type: functional
[4] = tested on: Mycolicibacterium smegmatis; assay: Antimicrobial activity against Mycobacterium smegmatis 607 assessed as growth inhibition by agar dilution-streak method; assay type: functional
[5] = tested on: Candida albicans; assay: Antimicrobial activity against Candida albicans 10231 assessed as growth inhibition by agar dilution-streak method; assay type: functional
[6] = tested on: Salmonella gallinarum; assay: Antimicrobial activity against Salmonella gallinarum 9184 assessed as growth inhibition by agar dilution-streak method

MIC [1] | MIC [2] | MIC [3] | MIC [4] | MIC [5] | MIC [6] | Structure (SMILES)
40 µg/mL (≈ 173 µM) | 2.5 µg/mL (≈ 10.8 µM) | 10 µg/mL (≈ 43.2 µM) | > 100 µg/mL | > 100 µg/mL | 1.25 µg/mL (≈ 5.41 µM) | CCn1cc(C(=O)O)c(=O)c2ccc(C)cc21
40 µg/mL (≈ 173 µM) | 20 µg/mL (≈ 86.5 µM) | > 100 µg/mL | > 100 µg/mL | > 100 µg/mL | 20 µg/mL (≈ 86.5 µM) | CCn1cc(C(=O)O)c(=O)c2cc(C)ccc21
> 100 µg/mL | > 100 µg/mL | > 100 µg/mL | > 100 µg/mL | > 100 µg/mL | > 100 µg/mL | CCn1cc(C(=O)O)c(=O)c2cccc(C)c21
100 µg/mL (≈ 397 µM) | 20 µg/mL (≈ 79.5 µM) | 10 µg/mL (≈ 39.7 µM) | 100 µg/mL (≈ 397 µM) | > 40 µg/mL | 20 µg/mL (≈ 79.5 µM) | CCn1cc(C(=O)O)c(=O)c2cc(Cl)ccc21
> 100 µg/mL | > 100 µg/mL | > 100 µg/mL | > 100 µg/mL | > 100 µg/mL | > 100 µg/mL | CCn1c(O)c(C(=O)O)c(=O)c2cc3c(cc21)OCO3
> 100 µg/mL | > 100 µg/mL | > 100 µg/mL | > 100 µg/mL | > 100 µg/mL | > 100 µg/mL | CCn1c(C)c(C(=O)O)c(=O)c2cc3c(cc21)OCO3

Structure (SMILES) | MIC [1] | MIC [2] | MIC [3] | MIC [4] | MIC [5] | MIC [6]
CCn1cc(C(=O)O)c(=O)c2cc3c(cc21)OCO3 [OXOLINIC ACID] | 5 µg/mL (≈ 19.1 µM) | 1.25 µg/mL (≈ 4.79 µM) | < 0.625 µg/mL | > 40 µg/mL | > 40 µg/mL | 1.25 µg/mL (≈ 4.79 µM)
